# ChEMBL document CHEMBL5126564, “Design, synthesis and biological evaluation of chromone derivatives as novel protein kinase CK2 inhibitors” (Bioorg Med Chem Lett, 2022)
# Calls of active or inactive are those of the source. No cut-off for these calls is given here.
# Biological target: T1, Casein kinase 2 (Homo sapiens, UniProt P67870+P68400+P19784+Q8NEV1)
# Assay: Inhibition of CK2 (unknown origin)
# Assay type: protein assay
# Conditions: not given
row,IC50,SMILES
1,80 nM,COc1ccc2sc(NC(=O)c3cc(=O)c4ccccc4o3)nc2c1
2,7110 nM,Cc1cnc(NC(=O)c2cc(=O)c3ccccc3o2)s1
3,240 nM,O=C(Nc1nc2ccc(F)cc2s1)c1cc(=O)c2ccccc2o1
4,360 nM,Cc1cc2nc(NC(=O)c3cc(=O)c4ccccc4o3)sc2cc1C
5,290 nM,O=C(Nc1nc2ccc(Br)cc2s1)c1cc(=O)c2ccccc2o1
6,610 nM,O=C(Nc1nc(-c2ccccc2)cs1)c1cc(=O)c2ccccc2o1
7,370 nM,Cc1ccc2nc(NC(=O)c3cc(=O)c4ccccc4o3)sc2c1
8,6110 nM,Cc1nc(NC(=O)c2cc(=O)c3ccccc3o2)sc1C
9,5550 nM,O=C(Nc1nc(-c2cccc(C(F)(F)F)c2)cs1)c1cc(=O)c2ccccc2o1
10,160 nM,O=C(Nc1nc2ccc(OC(F)(F)F)cc2s1)c1cc(=O)c2ccccc2o1
11,5200 nM,Cc1nnc(NC(=O)c2cc(=O)c3ccccc3o2)o1
12,200 nM,O=C(Nc1nc2ccc(C(F)(F)F)cc2s1)c1cc(=O)c2ccccc2o1
13,5090 nM,N#Cc1cccc(-c2csc(NC(=O)c3cc(=O)c4ccccc4o3)n2)c1
14,6880 nM,O=C(Nc1nnco1)c1cc(=O)c2ccccc2o1
15,4120 nM,Cc1cccc(-c2csc(NC(=O)c3cc(=O)c4ccccc4o3)n2)c1
16,5340 nM,CC(C)c1csc(NC(=O)c2cc(=O)c3ccccc3o2)n1
17,590 nM,COc1ccc(-c2csc(NC(=O)c3cc(=O)c4ccccc4o3)n2)cc1

row,IC50,SMILES
1,740 nM,O=C(Nc1nc(-c2ccc(O)cc2)cs1)c1cc(=O)c2ccccc2o1
2,4880 nM,O=C(Nc1ncco1)c1cc(=O)c2ccccc2o1
3,110 nM,O=C(Nc1nc2cc(F)ccc2s1)c1cc(=O)c2ccccc2o1
4,5440 nM,O=C(Nc1ncc(Br)s1)c1cc(=O)c2ccccc2o1
5,310 nM,O=C(Nc1nc2ccccc2s1)c1cc(=O)c2ccccc2o1
6,5980 nM,O=C(O)c1cc(=O)c2ccccc2o1 [CHROMOCARB]
7,340 nM,O=C(Nc1nc(-c2ccc(C(F)(F)F)cc2)cs1)c1cc(=O)c2ccccc2o1
8,290 nM,COc1ccc2nc(NC(=O)c3cc(=O)c4ccccc4o3)sc2c1
9,4980 nM,O=Cc1cnc(NC(=O)c2cc(=O)c3ccccc3o2)s1
10,4350 nM,CC(C)Cc1csc(NC(=O)c2cc(=O)c3ccccc3o2)n1
11,180 nM,O=C(Nc1nc(-c2ccc(OC(F)(F)F)cc2)cs1)c1cc(=O)c2ccccc2o1
12,230 nM,Cc1ccc(-c2csc(NC(=O)c3cc(=O)c4ccccc4o3)n2)cc1
13,150 nM,O=C(Nc1nc(-c2ccc(F)cc2)cs1)c1cc(=O)c2ccccc2o1
14,5210 nM,O=C(Nc1nccs1)c1cc(=O)c2ccccc2o1
15,6420 nM,Cc1csc(NC(=O)c2cc(=O)c3ccccc3o2)n1
16,250 nM,O=C(Nc1nc2cc(Br)ccc2s1)c1cc(=O)c2ccccc2o1

# Biological target: T1, Casein kinase 2
# Assay: Binding affinity to CK2 (unknown origin) by cellular thermal shift assay
# Assay type: protein assay
# Conditions: not given
row,Activity,SMILES
1,Active,COc1ccc2sc(NC(=O)c3cc(=O)c4ccccc4o3)nc2c1

# Test system: HL-60
# Assay: Antiproliferative activity against human HL-60 cells assessed as cell viability after 48 hrs by CCK-8 assay
# Assay type: functional, cell-based
# Conditions: HL-60, 48 h
row,IC50,SMILES
1,250 nM,COc1ccc2sc(NC(=O)c3cc(=O)c4ccccc4o3)nc2c1
2,310 nM,O=C(Nc1nc2cc(F)ccc2s1)c1cc(=O)c2ccccc2o1
3,590 nM,O=C(Nc1nc(-c2ccc(OC(F)(F)F)cc2)cs1)c1cc(=O)c2ccccc2o1
4,420 nM,O=C(Nc1nc(-c2ccc(F)cc2)cs1)c1cc(=O)c2ccccc2o1

# Test system: A549
# Assay: Antiproliferative activity against human A549 cells assessed as cell viability after 48 hrs by CCK-8 assay
# Assay type: functional, cell-based
# Conditions: A549, 48 h
row,IC50,SMILES
1,380 nM,COc1ccc2sc(NC(=O)c3cc(=O)c4ccccc4o3)nc2c1
2,440 nM,O=C(Nc1nc2cc(F)ccc2s1)c1cc(=O)c2ccccc2o1
3,670 nM,O=C(Nc1nc(-c2ccc(OC(F)(F)F)cc2)cs1)c1cc(=O)c2ccccc2o1
4,520 nM,O=C(Nc1nc(-c2ccc(F)cc2)cs1)c1cc(=O)c2ccccc2o1

# Test system: HepG2
# Assay: Antiproliferative activity against human HepG2 cells assessed as cell viability after 48 hrs by CCK-8 assay
# Assay type: functional, cell-based
# Conditions: HepG2, 48 h
row,IC50,SMILES
1,660 nM,COc1ccc2sc(NC(=O)c3cc(=O)c4ccccc4o3)nc2c1
2,850 nM,O=C(Nc1nc2cc(F)ccc2s1)c1cc(=O)c2ccccc2o1
3,1040 nM,O=C(Nc1nc(-c2ccc(OC(F)(F)F)cc2)cs1)c1cc(=O)c2ccccc2o1
4,950 nM,O=C(Nc1nc(-c2ccc(F)cc2)cs1)c1cc(=O)c2ccccc2o1

# Test system: SK-OV-3
# Assay: Antiproliferative activity against human SK-OV-3 cells assessed as cell viability after 48 hrs by CCK-8 assay
# Assay type: functional, cell-based
# Conditions: SK-OV-3, 48 h
row,IC50,SMILES
1,390 nM,COc1ccc2sc(NC(=O)c3cc(=O)c4ccccc4o3)nc2c1
2,420 nM,O=C(Nc1nc2cc(F)ccc2s1)c1cc(=O)c2ccccc2o1
3,490 nM,O=C(Nc1nc(-c2ccc(OC(F)(F)F)cc2)cs1)c1cc(=O)c2ccccc2o1
4,440 nM,O=C(Nc1nc(-c2ccc(F)cc2)cs1)c1cc(=O)c2ccccc2o1

# Test system: not listed separately
# Assay: Cytotoxicity against human MSC assessed as cell viability after 48 hrs by CCK-8 assay
# Assay type: toxicity, cell-based
# Conditions: mesenchymal stem cells (MSC)
row,SMILES,IC50 at 48 h
1,COc1ccc2sc(NC(=O)c3cc(=O)c4ccccc4o3)nc2c1,6250 nM
2,O=C(Nc1nc2cc(F)ccc2s1)c1cc(=O)c2ccccc2o1,4340 nM
3,O=C(Nc1nc(-c2ccc(OC(F)(F)F)cc2)cs1)c1cc(=O)c2ccccc2o1,17700 nM
4,O=C(Nc1nc(-c2ccc(F)cc2)cs1)c1cc(=O)c2ccccc2o1,7560 nM

# Test system: HL-60
# Assay: Induction of apoptosis in human HL-60 cells measured after 48 hrs by flow cytometry
# Assay type: functional, cell-based
# Conditions: DDE = dose-dependent effect
row,SMILES,Activity
1,COc1ccc2sc(NC(=O)c3cc(=O)c4ccccc4o3)nc2c1,Dde

# Test system: HL-60
# Assay: Induction of apoptosis in human HL-60 cells assessed as early apoptotic cells at 1 uM measured after 48 hrs by flow cytometry relative to control
# Assay type: functional
# Conditions: not given
row,SMILES,Activity
1,COc1ccc2sc(NC(=O)c3cc(=O)c4ccccc4o3)nc2c1,80.7%
2,CNC(=O)c1cc(Oc2ccc(NC(=O)Nc3ccc(Cl)c(C(F)(F)F)c3)cc2)ccn1 [SORAFENIB],73.2%

# Test system: HL-60
# Assay: Induction of cell cycle arrest in human HL-60 cells assessed as increase number of cells at G0/G1 phase at 0.1 to 1 uM measured after 12 to 48 hrs by flow cytometry
# Assay type: functional, cell-based
# Conditions: dose 0.1-1 µM, time 12-48 hrs, DDE = dose-dependent effect
row,SMILES,Activity
1,COc1ccc2sc(NC(=O)c3cc(=O)c4ccccc4o3)nc2c1,Dde

# Biological target: T1, Casein kinase 2
# Assay: Inhibition of CK2 in human HL-60 cells assessed as decrease in p-alpha-catenin level at 0.1 to 1 uM by Western blot analysis
# Assay type: cell-based
# Conditions: dose 0.1-1 µM
row,inhibition,SMILES
1,Active,COc1ccc2sc(NC(=O)c3cc(=O)c4ccccc4o3)nc2c1

# Biological target: T1, Casein kinase 2
# Assay: Inhibition of CK2 in human HL-60 cells assessed as decrease in p-Akt (S129) level at 0.1 to 1 uM by Western blot analysis
# Assay type: cell-based
# Conditions: dose 0.1-1 µM
row,inhibition,SMILES
1,Active,COc1ccc2sc(NC(=O)c3cc(=O)c4ccccc4o3)nc2c1

# Biological target: T1, Casein kinase 2
# Assay: Inhibition of CK2 in human HL-60 cells assessed as decrease in p-p21 level at 0.1 to 1 uM by Western blot analysis
# Assay type: cell-based
# Conditions: dose 0.1-1 µM
row,inhibition,SMILES
1,Active,COc1ccc2sc(NC(=O)c3cc(=O)c4ccccc4o3)nc2c1

# Biological target: T1, Casein kinase 2
# Assay: Inhibition of CK2 in human HL-60 cells assessed as decrease in survivin level at 0.1 to 1 uM by Western blot analysis
# Assay type: cell-based
# Conditions: dose 0.1-1 µM
row,SMILES,inhibition
1,COc1ccc2sc(NC(=O)c3cc(=O)c4ccccc4o3)nc2c1,Active

# Biological target: T1, Casein kinase 2
# Assay: Inhibition of CK2 in human HL-60 cells assessed as decrease in p-STAT3 level at 0.1 to 1 uM by Western blot analysis
# Assay type: cell-based
# Conditions: dose 0.1-1 µM
row,inhibition,SMILES
1,Active,COc1ccc2sc(NC(=O)c3cc(=O)c4ccccc4o3)nc2c1

# Biological target: T1, Casein kinase 2
# Assay: Inhibition of CK2 in human HL-60 cells assessed as increase in cleaved PARP level at 0.1 to 1 uM by Western blot analysis
# Assay type: cell-based
# Conditions: dose 0.1-1 µM
row,inhibition,SMILES
1,Active,COc1ccc2sc(NC(=O)c3cc(=O)c4ccccc4o3)nc2c1
